Values joined by “and” are separate entries in the source; they are usually repeats but may differ in a detail not shown here. Equal entries are not always repeated. Where two headings read alike, the source gives them in different places.
How the values were obtained:
mNET = mNET (Mus musculus, UniProt O55192); test: [3H]MPP+ uptake inhibition in transiently transfected mNET-HEK cells; format: cell-based
hOCT3 = target: T1, hOCT3 (Homo sapiens, UniProt O75751); test: [3H]MPP+ uptake competition in stable hOCT3-HEK cells; format: cell-based; conditions: 10 min room temperature
T1 sequence (O75751 1-556): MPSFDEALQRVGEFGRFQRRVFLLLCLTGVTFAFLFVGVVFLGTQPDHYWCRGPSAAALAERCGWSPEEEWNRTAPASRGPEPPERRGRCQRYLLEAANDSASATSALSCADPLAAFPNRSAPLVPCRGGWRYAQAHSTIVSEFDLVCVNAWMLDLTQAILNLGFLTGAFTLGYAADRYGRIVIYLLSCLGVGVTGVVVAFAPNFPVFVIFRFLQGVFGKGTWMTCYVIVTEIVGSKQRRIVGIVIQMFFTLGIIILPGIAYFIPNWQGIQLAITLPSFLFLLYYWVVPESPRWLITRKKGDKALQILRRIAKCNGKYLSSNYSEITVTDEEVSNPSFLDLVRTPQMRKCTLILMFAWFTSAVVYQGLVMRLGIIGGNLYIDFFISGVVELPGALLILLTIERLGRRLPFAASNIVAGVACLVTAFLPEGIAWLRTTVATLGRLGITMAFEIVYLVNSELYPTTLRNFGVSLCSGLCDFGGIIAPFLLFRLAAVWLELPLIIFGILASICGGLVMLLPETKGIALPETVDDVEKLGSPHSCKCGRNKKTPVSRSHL

hOCT2 = target: T2, hOCT2 (Homo sapiens, UniProt O15244); test: [3H]MPP+ uptake competition in stable hOCT2-HEK cells; format: cell-based; conditions: 10 min room temperature
T2 sequence (O15244 1-555): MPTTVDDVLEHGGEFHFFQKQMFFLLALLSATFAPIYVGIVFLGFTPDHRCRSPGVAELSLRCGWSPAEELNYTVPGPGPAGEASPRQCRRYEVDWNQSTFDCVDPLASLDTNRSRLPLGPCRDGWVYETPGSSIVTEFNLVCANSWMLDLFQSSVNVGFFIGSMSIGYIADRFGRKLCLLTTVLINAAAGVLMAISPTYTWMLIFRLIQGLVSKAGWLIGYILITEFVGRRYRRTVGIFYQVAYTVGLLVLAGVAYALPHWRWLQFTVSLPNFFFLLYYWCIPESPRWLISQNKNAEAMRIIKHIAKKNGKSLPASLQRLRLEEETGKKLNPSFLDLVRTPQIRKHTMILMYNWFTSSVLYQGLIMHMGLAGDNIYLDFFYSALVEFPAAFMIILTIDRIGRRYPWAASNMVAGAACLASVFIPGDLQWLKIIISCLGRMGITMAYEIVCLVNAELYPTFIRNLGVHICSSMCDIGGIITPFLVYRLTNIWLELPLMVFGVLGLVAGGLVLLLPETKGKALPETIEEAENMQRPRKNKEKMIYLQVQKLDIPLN

mDAT = mDAT (Mus musculus, UniProt Q61327); test: [3H]MPP+ uptake inhibition in transiently transfected mDAT-HEK cells; format: cell-based
mSERT = mSERT (Mus musculus, UniProt Q60857); test: [3H]5-HT uptake inhibition in transiently transfected mSERT-HEK cells; format: cell-based
hPMAT = target: T3, hPMAT (Homo sapiens, UniProt Q7RTT9); test: [3H]MPP+ uptake competition in stable hPMAT-HEK cells; format: cell-based
T3 sequence (Q7RTT9 1-530): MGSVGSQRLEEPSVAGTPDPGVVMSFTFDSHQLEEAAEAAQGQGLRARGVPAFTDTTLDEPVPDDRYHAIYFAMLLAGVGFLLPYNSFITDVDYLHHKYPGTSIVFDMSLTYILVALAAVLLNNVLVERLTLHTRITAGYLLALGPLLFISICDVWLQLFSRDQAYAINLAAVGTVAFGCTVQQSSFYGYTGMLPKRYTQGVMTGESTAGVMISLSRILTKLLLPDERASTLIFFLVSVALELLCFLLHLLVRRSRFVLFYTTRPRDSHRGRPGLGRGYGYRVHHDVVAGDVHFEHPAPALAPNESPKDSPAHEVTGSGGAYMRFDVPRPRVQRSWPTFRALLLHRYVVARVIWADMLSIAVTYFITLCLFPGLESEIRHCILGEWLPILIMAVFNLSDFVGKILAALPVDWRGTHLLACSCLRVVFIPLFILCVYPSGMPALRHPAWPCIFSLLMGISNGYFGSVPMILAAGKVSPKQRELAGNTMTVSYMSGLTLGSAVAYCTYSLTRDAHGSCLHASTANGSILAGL

DAT = DAT (Mus musculus, UniProt Q61327); test: [3H]WIN 35428 binding displacement in mouse striatum homogenate
[1] = read-out: DAT [3H]WIN 35428 IC50, mouse striatum homogenate, 4 nM [3H]WIN 35428, 60 min
[2] = read-out: hOCT3-HEK IC50, 10 nM [3H]MPP+ uptake
[3] = read-out: hOCT2-HEK IC50, 10 nM [3H]MPP+ uptake
[4] = read-out: hPMAT-HEK IC50, 10 nM [3H]MPP+ uptake, 10 min room temperature

Sequence of mNET (O55192 whole entry): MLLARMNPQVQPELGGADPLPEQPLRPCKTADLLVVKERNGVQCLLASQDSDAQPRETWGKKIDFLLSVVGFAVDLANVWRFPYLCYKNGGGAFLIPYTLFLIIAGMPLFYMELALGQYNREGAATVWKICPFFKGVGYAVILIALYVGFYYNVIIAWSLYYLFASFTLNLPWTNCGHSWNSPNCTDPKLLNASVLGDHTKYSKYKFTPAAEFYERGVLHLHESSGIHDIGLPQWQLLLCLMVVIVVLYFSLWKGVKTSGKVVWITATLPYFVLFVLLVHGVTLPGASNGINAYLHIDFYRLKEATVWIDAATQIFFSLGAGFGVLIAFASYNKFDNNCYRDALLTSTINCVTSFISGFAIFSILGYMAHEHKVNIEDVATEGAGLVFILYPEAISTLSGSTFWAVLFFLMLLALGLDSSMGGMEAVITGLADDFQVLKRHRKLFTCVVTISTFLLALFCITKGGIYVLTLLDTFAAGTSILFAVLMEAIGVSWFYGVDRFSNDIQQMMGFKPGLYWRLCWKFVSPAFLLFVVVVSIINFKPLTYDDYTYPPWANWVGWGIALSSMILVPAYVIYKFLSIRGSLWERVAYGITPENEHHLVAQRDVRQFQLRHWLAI
Sequence of DAT (Q61327 whole entry): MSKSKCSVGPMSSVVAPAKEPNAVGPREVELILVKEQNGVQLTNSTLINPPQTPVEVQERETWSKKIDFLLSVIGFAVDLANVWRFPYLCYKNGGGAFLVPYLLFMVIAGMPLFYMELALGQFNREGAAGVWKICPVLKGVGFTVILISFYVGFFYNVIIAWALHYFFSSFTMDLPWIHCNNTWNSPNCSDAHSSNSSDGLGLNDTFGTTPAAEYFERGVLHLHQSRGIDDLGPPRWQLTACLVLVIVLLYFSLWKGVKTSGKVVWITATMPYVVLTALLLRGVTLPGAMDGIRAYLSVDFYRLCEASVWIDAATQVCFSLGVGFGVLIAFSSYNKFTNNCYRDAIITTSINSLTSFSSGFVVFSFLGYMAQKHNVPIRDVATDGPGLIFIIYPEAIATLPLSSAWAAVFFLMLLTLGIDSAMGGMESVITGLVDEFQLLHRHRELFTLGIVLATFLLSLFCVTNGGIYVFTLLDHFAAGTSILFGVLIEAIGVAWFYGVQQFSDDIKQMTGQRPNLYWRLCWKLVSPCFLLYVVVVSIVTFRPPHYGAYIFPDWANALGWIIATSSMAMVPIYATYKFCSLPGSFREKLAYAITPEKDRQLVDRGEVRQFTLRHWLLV
Sequence of mDAT (Q61327 whole entry): as above
Sequence of mSERT (Q60857 whole entry): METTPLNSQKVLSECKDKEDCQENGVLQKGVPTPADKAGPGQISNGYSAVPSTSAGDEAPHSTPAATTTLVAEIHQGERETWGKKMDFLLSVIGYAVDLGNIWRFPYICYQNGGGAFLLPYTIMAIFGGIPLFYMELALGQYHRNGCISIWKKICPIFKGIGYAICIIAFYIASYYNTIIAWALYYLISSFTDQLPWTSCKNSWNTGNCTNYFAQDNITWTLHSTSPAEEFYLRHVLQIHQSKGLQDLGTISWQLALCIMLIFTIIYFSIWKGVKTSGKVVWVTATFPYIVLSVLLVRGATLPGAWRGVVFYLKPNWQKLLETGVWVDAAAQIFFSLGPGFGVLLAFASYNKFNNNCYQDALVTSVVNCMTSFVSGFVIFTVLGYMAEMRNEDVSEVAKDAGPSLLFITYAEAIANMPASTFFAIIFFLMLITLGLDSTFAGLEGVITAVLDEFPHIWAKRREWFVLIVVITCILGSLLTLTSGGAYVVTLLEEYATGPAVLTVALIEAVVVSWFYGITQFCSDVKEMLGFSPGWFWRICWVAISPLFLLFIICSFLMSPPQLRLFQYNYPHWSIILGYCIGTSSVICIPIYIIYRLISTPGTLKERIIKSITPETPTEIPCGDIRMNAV

For `C[C@]12C[C@H](O)[C@H]3[C@@H](CCC4=CC(=O)CC[C@@]43C)[C@@H]1CC[C@@H]2C(=O)CO` [Corticosterone], the IC50 (mNET) was 840 µM, the IC50 (hOCT3; hOCT3-HEK IC50, 10 nM [3H]MPP+ uptake) was 600 nM and 620 nM and the IC50 (hOCT2; hOCT2-HEK IC50, 10 nM [3H]MPP+ uptake) was 79.6 µM. For the same compound, the IC50 (mDAT) was 364 µM and 365 µM, the IC50 (mSERT) was 445 µM and the IC50 (hPMAT) was 1.06 mM.
Work on `COC(=O)[C@H]1[C@@H](c2ccc(F)cc2)C[C@@H]2CC[C@H]1N2C` [WIN 35428] yielded an IC50 (DAT; [1]) of 0.06 µM.
For `COC(=O)[C@H]1[C@@H](OC(=O)c2ccccc2)C[C@@H]2CC[C@H]1N2C` [Cocaine], the IC50 (mNET; mNET-HEK IC50, 20 nM [3H]MPP+ uptake, 3 min) was 1.2 µM and 1.18 µM, the IC50 (mDAT; mDAT-HEK IC50, 20 nM [3H]MPP+ uptake, 3 min) was 0.18 µM and the IC50 (mSERT; mSERT-HEK IC50, 100 nM [3H]5-HT uptake, 1 min) was 0.5 µM and 0.51 µM.
`NCCc1ccc(O)c(O)c1` [Dopamine] was tested, and the IC50 (DAT) was 99.8 µM.
For `CCN1C(=Cc2ccc3ccccc3[n+]2CC)C=Cc2ccccc21` [Decynium 22, 1,1’-diethyl-2,2’-cyanine], the IC50 (DAT; [1]) was 10.8 µM, the IC50 (mNET; read-out: mNET-HEK IC50, 20 nM [3H]MPP+ uptake, 3 min) was 35 µM and the IC50 (hOCT3; [2]) was 200 nM. The IC50 (hOCT2; [3]) was 10 µM, the IC50 (mDAT; read-out: mDAT-HEK IC50, 20 nM [3H]MPP+ uptake, 3 min) was 12.9 µM and the IC50 (mSERT; read-out: mSERT-HEK IC50, 100 nM [3H]5-HT uptake, 1 min) was 7.9 µM. The IC50 (mSERT; read-out: mSERT-HEK IC50, 100 nM [3H]5-HT uptake, 1 min, listed as D22) was 8 µM and the IC50 (hPMAT; [4]) was 0.0011 mM.
Work on `C[n+]1ccc(-c2ccccc2)cc1` [MPP^+, 1-methyl-4-phenylpyridinium] yielded an IC50 (hOCT3; [2]) of 91000 nM, an IC50 (hOCT2; [3]) of 110 µM and an IC50 (hPMAT; [4]) of 1.03 mM.

From paper PMC6440482 (European journal of pharmacology, 2018)
